Measurements from article PMC10819888, “Benzimidazole-Based Derivatives as Apoptotic Antiproliferative Agents: Design, Synthesis, Docking, and Mechanistic Studies” (Molecules, 2024).

Experiments:
Assay type in all cases: cell-based, human
[1] = tested on: IGROV1; assay: NCI-60 five-dose assay; details: IGROV1, Ovarian Cancer
[2] = tested on: NCI-H23; assay: NCI-60 five-dose assay; details: NCI-H23, Non-Small Cell Lung Cancer
[3] = tested on: NCI-H322M; assay: NCI-60 five-dose assay; details: NCI-H322M, Non-Small Cell Lung Cancer
[4] = tested on: OVCAR-3; assay: NCI-60 five-dose assay; details: OVCAR-3, Ovarian Cancer
[5] = tested on: OVCAR-4; assay: NCI-60 five-dose assay; details: OVCAR-4, Ovarian Cancer
[6] = tested on: SF-295; assay: NCI-60 five-dose assay; details: SF-295, CNS Cancer
[7] = tested on: UO-31; assay: NCI-60 five-dose assay; details: UO-31, Renal Cancer
[8] = tested on: SK-MEL-5; assay: NCI-60 five-dose assay; details: SK-MEL-5, Melanoma
[9] = tested on: NCI/ADR-RES; assay: NCI-60 five-dose assay; details: NCI/ADR-RES, Ovarian Cancer
[10] = tested on: U251; assay: NCI-60 five-dose assay; details: U251, CNS Cancer
[11] = tested on: HOP-62; assay: NCI-60 five-dose assay; details: HOP-62, Non-Small Cell Lung Cancer
[12] = tested on: BT-549; assay: NCI-60 five-dose assay; details: Homo sapiens, BT-549, Breast Cancer
[13] = tested on: Renal Cancer subpanel; assay: NCI-60 five-dose assay, subpanel; details: Renal Cancer
[14] = tested on: HL-60(TB); assay: NCI-60 five-dose assay; details: HL-60(TB), Leukemia
[15] = tested on: SK-MEL-2; assay: NCI-60 five-dose assay; details: SK-MEL-2, Melanoma
[16] = tested on: NCI-H460; assay: NCI-60 five-dose assay; details: NCI-H460, Non-Small Cell Lung Cancer
[17] = tested on: SW-620; assay: NCI-60 five-dose assay; details: SW-620, Colon Cancer
[18] = tested on: RPMI-8226; assay: NCI-60 five-dose assay; details: RPMI-8226, Leukemia
[19] = tested on: Leukemia subpanel; assay: NCI-60 five-dose assay, subpanel; details: Leukemia
[20] = tested on: HCT-15; assay: NCI-60 five-dose assay; details: HCT-15, Colon Cancer
[21] = tested on: Ovarian Cancer subpanel; assay: NCI-60 five-dose assay, subpanel; details: Ovarian Cancer
[22] = tested on: SF-539; assay: NCI-60 five-dose assay; details: SF-539, CNS Cancer
[23] = tested on: MDA-MB-435; assay: NCI-60 five-dose assay; details: MDA-MB-435, Melanoma
[24] = tested on: HS 578T; assay: NCI-60 five-dose assay; details: HS 578T, Breast Cancer
[25] = Homo sapiens, read-out: GI50 Conc. per Cell Line
[26] = Homo sapiens, read-out: LC50 (the source's name)
[27] = Homo sapiens, average sensitivity of all subpanel cell lines, read-out: GI50 Subpanel MID b

Question: For `COc1ccc(C=NNC(=O)c2ccc3[nH]c(-c4ccc(Cl)cc4)nc3c2)cc1` [Compound 4g, N′-(4-Methoxybenzylidene)-2-(4-chlorophenyl)-1H-benzimidazole-5-carbohydrazide], which GI50 ([1]; Homo sapiens, IGROV-1, read-out: GI50 Conc. per Cell Line) is on record?
Answer: Its GI50 is 1.65 µM.

Question: What about the CC50 ([1]; Homo sapiens, IGROV-1, read-out: LC50 (the source's name)) of the same compound?
Answer: The CC50 was 9.57 µM.

Question: And the TGI [1]?
Answer: Its TGI is 3.97 µM.

Question: And the GI50 [2, 25]?
Answer: The GI50 was 2.74 µM.

Question: What about the CC50 [2, 26] of the same compound?
Answer: The CC50 was 75.9 µM.

Question: And the TGI [2]?
Answer: Its TGI is 11.20 µM.

Question: And the GI50 [3, 25]?
Answer: The GI50 was 2.49 µM.

Question: What about the CC50 [3, 26] of the same compound?
Answer: The CC50 was 55.4 µM.

Question: What about the TGI [3] of the same compound?
Answer: The TGI was 7.20 µM.

Question: What about the GI50 [4, 25] of the same compound?
Answer: The GI50 was 2.28 µM.

Question: And the CC50 [4, 26]?
Answer: The CC50 was 16 µM.

Question: What about the TGI [4] of the same compound?
Answer: Its TGI is 5.14 µM.

Question: And the GI50 [5, 25]?
Answer: The GI50 was 1.79 µM.

Question: And the CC50 [5, 26]?
Answer: Its CC50 is 6.33 µM.

Question: What about the TGI [5] of the same compound?
Answer: Its TGI is 3.36 µM.

Question: And the GI50 [6, 25]?
Answer: Its GI50 is 2.23 µM.

Question: What about the CC50 [6, 26] of the same compound?
Answer: The CC50 was 15 µM.

Question: What about the TGI [6] of the same compound?
Answer: The TGI was 5.05 µM.

Question: What about the GI50 [7, 25] of the same compound?
Answer: The GI50 was 1.86 µM.

Question: And the CC50 [7, 26]?
Answer: The CC50 was 25.7 µM.

Question: What about the TGI [7] of the same compound?
Answer: The TGI was 6.38 µM.

Question: And the GI50 [8, 25]?
Answer: Its GI50 is 1.89 µM.

Question: And the CC50 [8, 26]?
Answer: The CC50 was 7.95 µM.

Question: And the TGI [8]?
Answer: The TGI was 3.88 µM.

Question: And the GI50 [9, 25]?
Answer: Its GI50 is 7.81 µM.

Question: What about the CC50 [9, 26] of the same compound?
Answer: The CC50 was over 100 µM.

Question: What about the TGI [9] of the same compound?
Answer: Its TGI is over 100 µM.

Question: What about the GI50 ([10]; Homo sapiens, U-251, read-out: GI50 Conc. per Cell Line) of the same compound?
Answer: Its GI50 is 2.43 µM.

Question: What about the CC50 ([10]; Homo sapiens, U-251, read-out: LC50 (the source's name)) of the same compound?
Answer: The CC50 was 30.4 µM.

Question: And the TGI [10]?
Answer: The TGI was 5.22 µM.

Question: And the TGI [11]?
Answer: The TGI was 6.37 µM.

Question: What about the GI50 [11, 25] of the same compound?
Answer: Its GI50 is 1.88 µM.

Question: What about the CC50 [11, 26] of the same compound?
Answer: Its CC50 is 53.6 µM.

Question: And the GI50 ([12]; read-out: GI50 Conc. per Cell Line)?
Answer: Its GI50 is 3.36 µM.

Question: And the CC50 ([12]; read-out: LC50 (the source's name))?
Answer: Its CC50 is over 100 µM.

Question: What about the GI50 [13, 27] of the same compound?
Answer: Its GI50 is 2.2 µM.

Question: And the “GI50 Selectivity Ratio (MID a/MID b)” value [13]?
Answer: The value was 1.14.

Question: What about the TGI [14] of the same compound?
Answer: The TGI was over 100 µM.

Question: And the GI50 [14, 25]?
Answer: The GI50 was 1.3 µM.

Question: And the CC50 [14, 26]?
Answer: The CC50 was over 100 µM.

Question: And the LC50 ([15]; Homo sapiens)?
Answer: The LC50 was 69.7 µM.

Question: And the GI50 [15, 25]?
Answer: Its GI50 is 3.59 µM.

Question: And the TGI [15]?
Answer: Its TGI is 13.80 µM.

Question: And the LC50 ([16]; Homo sapiens)?
Answer: The LC50 was 7.05 µM.

Question: And the GI50 [16, 25]?
Answer: The GI50 was 1.83 µM.

Question: And the TGI [16]?
Answer: The TGI was 3.59 µM.

Question: What about the LC50 ([17]; Homo sapiens) of the same compound?
Answer: Its LC50 is 31 µM.

Question: What about the GI50 [17, 25] of the same compound?
Answer: The GI50 was 2.41 µM.

Question: And the TGI [17]?
Answer: Its TGI is 5.58 µM.

Question: And the GI50 [18, 25]?
Answer: The GI50 was 0.997 µM.

Question: What about the CC50 [18, 26] of the same compound?
Answer: Its CC50 is over 100 µM.

Question: What about the TGI [18] of the same compound?
Answer: The TGI was 4.77 µM.

Question: What about the GI50 [19, 27] of the same compound?
Answer: Its GI50 is 2.88 µM.

Question: What about the “GI50 Selectivity Ratio (MID a/MID b)” value [19] of the same compound?
Answer: Its value is 0.87.

Question: And the TGI [20]?
Answer: Its TGI is 12.80 µM.

Question: What about the GI50 [20, 25] of the same compound?
Answer: The GI50 was 3.24 µM.

Question: And the CC50 [20, 26]?
Answer: The CC50 was 82 µM.

Question: What about the GI50 [21, 27] of the same compound?
Answer: Its GI50 is 3.05 µM.

Question: What about the “GI50 Selectivity Ratio (MID a/MID b)” value [21] of the same compound?
Answer: The value was 0.83.

Question: And the GI50 [22, 25]?
Answer: Its GI50 is 1.73 µM.

Question: What about the CC50 [22, 26] of the same compound?
Answer: The CC50 was 6.92 µM.

Question: What about the TGI [22] of the same compound?
Answer: Its TGI is 3.46 µM.

Question: What about the GI50 [23, 25] of the same compound?
Answer: Its GI50 is 3.11 µM.

Question: What about the CC50 [23, 26] of the same compound?
Answer: Its CC50 is 45.5 µM.

Question: What about the TGI [23] of the same compound?
Answer: Its TGI is 9.84 µM.

Question: And the TGI [24]?
Answer: The TGI was 5.64 µM.

Question: And the GI50 [24, 25]?
Answer: The GI50 was 2.3 µM.

Question: What about the CC50 [24, 26] of the same compound?
Answer: The CC50 was over 100 µM.
